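Interpolation was linear, between the two tested concentrations surrounding the appropriate level; five concentrations were tested over 48 hours in 96-well plates. At the GI50, growth is halved.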 Active and inactive are the calls of the source. Cut-off read from the data, not from the text of the source: active = GI50 up to about 1.1 µM and inactive = higher.
Columns and labels:
Test in all cases: growth of human tumour cells (NCI), 48 h
[1] = tested on: TK-10
[2] = tested on: SK-MEL-5
[3] = tested on: Malme-3M
[4] = tested on: CAKI-1
[5] = tested on: EKVX
[6] = tested on: BT-549
[7] = tested on: SR
[8] = tested on: NCI/ADR-RES
[9] = tested on: SK-MEL-28
[10] = tested on: ACHN
[11] = tested on: MDA-MB-435
[12] = tested on: HL-60
[13] = tested on: MOLT-4
[14] = tested on: HOP-92
[15] = tested on: 786-0
[16] = tested on: HCC 2998
[17] = tested on: HOP-62
[18] = tested on: DU-145
[19] = tested on: IGROV-1
[20] = tested on: NCI-H460
[21] = tested on: OVCAR-5
[22] = tested on: SNB-75
[23] = tested on: SF-539
[24] = tested on: OVCAR-8
[25] = tested on: SF-295
[26] = tested on: HCT-15
[27] = tested on: SNB-19
[28] = tested on: UACC-257
[29] = tested on: K562
[30] = tested on: HCT-116
[31] = tested on: MDA-MB-231
[32] = tested on: UO-31
[33] = tested on: KM12
[34] = tested on: OVCAR-4
[35] = tested on: SW-620
[36] = tested on: Hs-578T
[37] = tested on: M14
[38] = tested on: MCF7
[39] = tested on: RPMI-8226
[40] = tested on: A498
[41] = tested on: UACC-62
[42] = tested on: CCRF-CEM
[43] = tested on: COLO 205
[44] = tested on: U-251
[45] = tested on: SK-OV-3
[46] = tested on: PC-3
[47] = tested on: NCI-H23
[48] = tested on: MDA-N
[49] = tested on: SF-268
[50] = tested on: T47D
[51] = tested on: A549
[52] = tested on: SN12C
[53] = tested on: OVCAR-3
[54] = tested on: LOX IMVI
[55] = tested on: HT-29
[56] = tested on: NCI-H226
[57] = tested on: RXF 393
[58] = tested on: NCI-H522
[59] = tested on: SK-MEL-2

Measured: GI50

CCO/C=C1\SC(=S)N(c2ccc(OCC)cc2)C1=O
72.4 µM: [26]
inactive: [1] 90.4 µM | [2] 76.7 µM | [3] 85.7 µM | [4] 55.7 µM | [5] > 100 µM | [6] > 100 µM | [7] 30.2 µM | [8] > 100 µM | [9] > 100 µM | [10] > 100 µM | [11] 78.5 µM | [12] > 100 µM | [13] 43.1 µM | [14] 71.4 µM | [15] > 100 µM | [16] 52.5 µM | [17] > 100 µM | [18] 51.4 µM | [19] > 100 µM | [20] > 100 µM | [21] > 100 µM | [22] 18.9 µM | [23] 44.9 µM | [24] > 100 µM | [25] 95.3 µM | [27] > 100 µM | [28] 78.7 µM | [29] 44.6 µM | [30] > 100 µM | [31] > 100 µM | [32] 54.5 µM | [33] 50.8 µM | [34] 57 µM | [35] > 100 µM | [36] 39.9 µM | [37] 97.5 µM | [38] 75.5 µM | [39] 41.5 µM | [40] 80.4 µM | [41] 68.4 µM | [42] 54 µM | [43] > 100 µM | [44] 48 µM | [45] > 100 µM | [46] 57.1 µM | [47] > 100 µM | [48] 45.2 µM | [49] > 100 µM | [50] 28.9 µM | [51] > 100 µM | [52] > 100 µM | [53] > 100 µM | [54] 83.6 µM | [55] > 100 µM | [56] 69.7 µM | [57] 33.3 µM | [58] 67.3 µM | [59] 59.4 µM

O=[N+]([O-])C(C(Cl)=C(Cl)Cl)=C(n1nnc2ccccc21)n1nnc2ccccc21
inactive: [1] 46.1 µM | [2] 34.2 µM | [3] 21.7 µM | [4] 30.3 µM | [5] > 59.3 µM | [6] > 51.1 µM | [7] 8.45 µM | [8] 32.4 µM | [9] 23.5 µM | [10] 25.6 µM | [11] 27.9 µM | [12] 3.94 µM | [13] 9.33 µM | [14] 43.5 µM | [15] 13.2 µM | [16] 49.1 µM | [17] 35.7 µM | [18] > 86.3 µM | [19] 36.6 µM | [20] 51.6 µM | [21] 47.1 µM | [22] > 44.3 µM | [23] 28.2 µM | [24] 21.5 µM | [25] > 56 µM | [27] > 86.7 µM | [28] 48.9 µM | [29] 11.5 µM | [30] 20.5 µM | [31] 20.4 µM | [32] 25.6 µM | [33] > 58.5 µM | [34] 36.9 µM | [35] 5.21 µM | [36] 35.8 µM | [37] 30.7 µM | [38] 28.1 µM | [39] 24.8 µM | [40] > 57.9 µM | [41] 16.1 µM | [42] 18.6 µM | [43] 19.5 µM | [44] 36.1 µM | [45] > 43.6 µM | [46] 37.1 µM | [47] 37.6 µM | [48] 23.9 µM | [49] 30.1 µM | [50] 40.7 µM | [51] 48.5 µM | [52] 22.6 µM | [53] 24.9 µM | [54] 24.4 µM | [55] 26 µM | [56] > 58.7 µM | [57] 20.2 µM | [58] 18.5 µM | [59] 42 µM
25.9 µM: [26]

N#CC1C=Cc2ccccc2N1C(=O)Oc1ccccc1 (configuration not stated)
inactive: [1] 44.8 µM | [2] 46.5 µM | [3] 48.4 µM | [4] 84.3 µM | [5] 42.4 µM | [6] 53.5 µM | [7] 33.8 µM | [8] 55.5 µM | [9] > 100 µM | [10] 50.2 µM | [11] 23.7 µM | [12] 19.3 µM | [13] 28.2 µM | [14] 58.6 µM | [15] 56.5 µM | [16] 40.1 µM | [18] 31.9 µM | [19] 68.2 µM | [20] 41.4 µM | [21] > 100 µM | [22] 93.5 µM | [23] 69.8 µM | [24] 48.8 µM | [27] 74.8 µM | [28] 76.9 µM | [29] 32.3 µM | [30] 38.7 µM | [31] 68.2 µM | [32] 41.7 µM | [33] 37.2 µM | [34] 40.6 µM | [35] 36.2 µM | [36] 60 µM | [37] 46.7 µM | [38] 41.8 µM | [39] 21.3 µM | [40] 33.1 µM | [41] 52.7 µM | [42] 19.9 µM | [43] 58.7 µM | [44] 44.1 µM | [46] 52.1 µM | [47] 58.9 µM | [48] 35.4 µM | [49] 55.1 µM | [50] 28.2 µM | [51] 49.2 µM | [52] 45.9 µM | [54] 39.9 µM | [55] 44.3 µM | [56] 42.5 µM | [57] 66.4 µM | [58] 22 µM | [59] 23.1 µM
42.1 µM: [26]

CCCC(=O)Nc1cc(C(=O)N2C[C@H]3C[C@@]34C2=CC(=O)c2[nH]cc(C)c24)n(COC)c1
1.31 µM: [26]
inactive: [21] 1.16 µM | [45] 1.29 µM | [51] 1.51 µM
active: [1] 0.556 µM | [2] 0.0792 µM | [3] 0.105 µM | [4] 0.215 µM | [5] 0.843 µM | [6] 0.253 µM | [7] 0.00516 µM | [8] 0.656 µM | [9] 0.208 µM | [10] 0.197 µM | [11] 0.19 µM | [12] 0.045 µM | [13] 0.00879 µM | [14] 0.245 µM | [15] 0.149 µM | [16] 0.122 µM | [17] 0.728 µM | [18] 0.116 µM | [19] 0.11 µM | [20] 0.317 µM | [22] 0.248 µM | [23] 0.177 µM | [24] 0.0973 µM | [25] 0.735 µM | [27] 0.498 µM | [28] 0.171 µM | [29] 0.131 µM | [30] 0.182 µM | [31] 0.281 µM | [32] 0.843 µM | [33] 0.449 µM | [34] 0.783 µM | [35] 0.0169 µM | [36] 0.512 µM | [37] 0.662 µM | [38] 0.0303 µM | [39] 0.71 µM | [40] 0.741 µM | [41] 0.195 µM | [42] 0.014 µM | [43] 0.442 µM | [44] 0.114 µM | [46] 0.745 µM | [47] 0.0743 µM | [48] 0.582 µM | [49] 0.103 µM | [50] 0.109 µM | [52] 0.966 µM | [53] 0.0853 µM | [54] 0.12 µM | [55] 0.467 µM | [56] 0.475 µM | [57] 0.164 µM | [58] 0.0553 µM | [59] 0.293 µM

Source: ChEMBL document CHEMBL1201862, “PubChem BioAssay data set” (2004)
